One assay deals with human TLR7 (Homo sapiens (Human), UniProt Q9NYK1). The assay is described as follows: TLR7 inhibition reporter assay (HEK-Blue cells, SEAP reporter, gardiquimod stimulation). It counts as cell-based.
Another assay concerns the target human TLR8 (Homo sapiens (Human), UniProt Q9NR97). The assay is described as follows: TLR8 inhibition reporter assay (HEK-Blue cells, SEAP reporter, R848 stimulation).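 Also: compounds tested from 0.05 nM to 50 µM, 22 h at 37 °C, SEAP measured with HEK-Blue Detection, inhibition relative to agonist plus DMSO versus a known inhibitor.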
In a further assay the target is human TLR9 (Homo sapiens (Human), UniProt Q9NR96). The assay is described as follows: TLR9 inhibition reporter assay (HEK-Blue cells, SEAP reporter, ODN2006 stimulation).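 Also: compounds tested over 0.05 nM to 50 µM, 22 h incubation, inhibition taken as SEAP signal drop from agonist plus DMSO wells toward a known inhibitor control.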
Setting [1] is: HEK-Blue cells overexpressing human TLR7, gardiquimod 7.5 μM.
[2] abbreviates: read-out: TLR8 IC50, HEK-Blue cells overexpressing human TLR8, R848 15.9 μM.
Where [3] appears, read: read-out: TLR9 IC50, HEK-Blue cells overexpressing human TLR9, ODN2006 5 nM.

The text below walks through data of patent publication US10660877B2 (BRISTOL-MYERS SQUIBB COMPANY, priority 2016, dated 2020).

Read-outs that look alike come from different tables or passages of the source.

Chain of human TLR9 (Q9NR96 26-1032): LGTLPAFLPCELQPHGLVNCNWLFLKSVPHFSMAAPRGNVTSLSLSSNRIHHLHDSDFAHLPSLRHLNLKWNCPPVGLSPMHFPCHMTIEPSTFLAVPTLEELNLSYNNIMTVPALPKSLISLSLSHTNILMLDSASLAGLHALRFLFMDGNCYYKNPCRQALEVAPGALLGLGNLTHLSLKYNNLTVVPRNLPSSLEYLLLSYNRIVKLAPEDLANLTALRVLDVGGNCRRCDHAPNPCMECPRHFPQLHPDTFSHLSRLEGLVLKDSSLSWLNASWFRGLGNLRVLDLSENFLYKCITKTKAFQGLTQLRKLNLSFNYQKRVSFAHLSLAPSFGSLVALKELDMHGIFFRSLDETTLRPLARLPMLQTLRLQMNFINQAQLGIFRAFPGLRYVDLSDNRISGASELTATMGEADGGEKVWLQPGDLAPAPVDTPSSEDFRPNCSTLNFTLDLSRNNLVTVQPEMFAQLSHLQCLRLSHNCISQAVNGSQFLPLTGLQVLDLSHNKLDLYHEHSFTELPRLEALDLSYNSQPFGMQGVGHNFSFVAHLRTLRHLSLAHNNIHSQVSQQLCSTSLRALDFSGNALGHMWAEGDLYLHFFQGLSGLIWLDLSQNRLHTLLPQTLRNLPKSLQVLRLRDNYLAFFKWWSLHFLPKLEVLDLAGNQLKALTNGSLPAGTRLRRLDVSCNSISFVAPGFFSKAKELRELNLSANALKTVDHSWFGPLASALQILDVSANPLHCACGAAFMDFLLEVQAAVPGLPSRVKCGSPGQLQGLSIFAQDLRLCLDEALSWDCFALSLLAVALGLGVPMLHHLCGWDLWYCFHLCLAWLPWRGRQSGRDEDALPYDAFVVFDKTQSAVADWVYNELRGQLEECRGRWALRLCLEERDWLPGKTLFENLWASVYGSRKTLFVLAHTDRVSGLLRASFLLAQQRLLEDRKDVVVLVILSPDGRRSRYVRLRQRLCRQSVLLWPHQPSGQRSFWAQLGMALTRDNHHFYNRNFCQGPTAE
Chain of human TLR8 (Q9NR97 27-1041): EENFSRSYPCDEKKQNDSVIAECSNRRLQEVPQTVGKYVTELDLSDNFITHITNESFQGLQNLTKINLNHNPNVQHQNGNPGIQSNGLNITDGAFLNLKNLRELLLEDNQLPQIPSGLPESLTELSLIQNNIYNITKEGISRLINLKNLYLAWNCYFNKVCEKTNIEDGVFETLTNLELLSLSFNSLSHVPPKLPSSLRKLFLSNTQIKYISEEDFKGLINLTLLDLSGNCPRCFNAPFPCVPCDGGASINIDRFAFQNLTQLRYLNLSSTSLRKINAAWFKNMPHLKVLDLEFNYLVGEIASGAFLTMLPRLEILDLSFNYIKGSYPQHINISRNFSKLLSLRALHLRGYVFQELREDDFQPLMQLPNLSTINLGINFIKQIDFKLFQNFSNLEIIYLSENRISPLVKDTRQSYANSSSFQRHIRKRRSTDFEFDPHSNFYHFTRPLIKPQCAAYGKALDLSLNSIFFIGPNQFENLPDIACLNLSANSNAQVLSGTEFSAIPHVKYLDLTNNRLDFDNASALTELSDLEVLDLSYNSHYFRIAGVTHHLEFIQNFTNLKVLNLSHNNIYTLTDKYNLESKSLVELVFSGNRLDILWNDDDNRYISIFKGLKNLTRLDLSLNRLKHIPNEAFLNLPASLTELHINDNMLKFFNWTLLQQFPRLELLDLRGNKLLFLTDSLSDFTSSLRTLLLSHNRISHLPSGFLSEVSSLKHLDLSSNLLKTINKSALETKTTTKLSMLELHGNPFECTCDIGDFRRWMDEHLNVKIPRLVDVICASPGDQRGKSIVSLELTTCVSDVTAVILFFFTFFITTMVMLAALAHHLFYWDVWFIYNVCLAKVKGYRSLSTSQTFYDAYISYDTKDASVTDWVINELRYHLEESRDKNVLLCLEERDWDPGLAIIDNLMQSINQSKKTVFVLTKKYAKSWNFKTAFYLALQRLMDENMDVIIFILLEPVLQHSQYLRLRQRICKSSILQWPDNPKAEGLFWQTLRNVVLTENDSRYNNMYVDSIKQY
Chain of human TLR7 (Q9NYK1 27-1049): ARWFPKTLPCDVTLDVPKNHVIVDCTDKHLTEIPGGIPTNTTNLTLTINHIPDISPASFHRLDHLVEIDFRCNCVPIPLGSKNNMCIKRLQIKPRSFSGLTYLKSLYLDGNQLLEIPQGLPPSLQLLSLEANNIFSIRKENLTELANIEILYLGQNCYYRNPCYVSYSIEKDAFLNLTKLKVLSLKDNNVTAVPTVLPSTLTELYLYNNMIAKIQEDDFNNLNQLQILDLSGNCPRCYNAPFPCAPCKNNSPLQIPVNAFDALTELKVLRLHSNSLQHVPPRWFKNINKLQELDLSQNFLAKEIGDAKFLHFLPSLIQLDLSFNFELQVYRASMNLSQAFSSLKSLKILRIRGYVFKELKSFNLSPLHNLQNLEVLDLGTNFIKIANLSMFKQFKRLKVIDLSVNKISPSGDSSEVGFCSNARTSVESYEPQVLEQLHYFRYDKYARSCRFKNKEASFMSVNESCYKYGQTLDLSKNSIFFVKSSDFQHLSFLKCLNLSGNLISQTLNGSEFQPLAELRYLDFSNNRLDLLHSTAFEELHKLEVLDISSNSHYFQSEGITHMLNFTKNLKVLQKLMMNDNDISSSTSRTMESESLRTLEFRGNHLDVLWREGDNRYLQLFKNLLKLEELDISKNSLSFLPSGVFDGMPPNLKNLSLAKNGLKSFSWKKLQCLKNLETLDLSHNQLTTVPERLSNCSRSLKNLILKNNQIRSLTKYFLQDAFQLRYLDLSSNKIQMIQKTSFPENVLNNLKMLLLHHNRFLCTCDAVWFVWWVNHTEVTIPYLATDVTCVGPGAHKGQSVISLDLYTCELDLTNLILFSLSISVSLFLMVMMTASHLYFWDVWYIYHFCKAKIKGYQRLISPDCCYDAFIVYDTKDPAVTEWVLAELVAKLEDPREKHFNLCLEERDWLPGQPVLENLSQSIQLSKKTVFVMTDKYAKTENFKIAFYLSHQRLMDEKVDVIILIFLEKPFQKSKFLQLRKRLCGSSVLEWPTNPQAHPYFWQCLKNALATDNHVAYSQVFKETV

A word on the IC50: it is the concentration at which inhibition is half-maximal. In the case of `COc1cc(-c2[nH]c3ccc(C4CCNCC4)cc3c2C(C)C)cc(C2CC2)n1` [Example 486, 2-(2-cyclopropyl-6-methoxypyridin-4-yl)-3-isopropyl-5-(piperidin-4-yl)-1H-indole], the figures for the IC50 against human TLR7 (setting [1]), on human TLR8 (setting [2]) and on human TLR9 (setting [3]) were 0.049 µM, 0.213 µM and 2.76 µM, respectively.

Consider `CCc1c(-c2ccnc(OC)c2)[nH]c2ccc(C3CCN(C4CCN(CC)CC4)CC3)cc12` [Example 792, 3-ethyl-5-(1′-ethyl-[1,4′-bipiperidin]-4-yl)-2-(2-methoxypyridin-4-yl)-1H-indole], for which the IC50 against human TLR7 (setting [1]) was found to be 0.304 µM; on human TLR8 (setting [2]) it was 0.0849 µM; on human TLR9 (setting [3]) it was 0.686 µM.

As for `Cc1cc(-c2[nH]c3ccc(C4CCN(S(=O)(=O)c5ccc(F)cc5)CC4)cc3c2C(C)C)ccn1` [Example 551, 5-(1-((4-fluorophenyl)sulfonyl)piperidin-4-yl)-3-isopropyl-2-(2-methylpyridin-4-yl)-1H-indole], the IC50 against human TLR7 (setting [1]) is 0.486 µM; at human TLR8 (setting [2]), 1.03 µM; at human TLR9 (setting [3]), above 50 µM.

With `CCc1c(-c2cc(C)nc(C)c2)[nH]c2ccc(C3CCN(C(=O)C4CC(=O)N(C)C4)CC3)cc12` (stereo not drawn) [Example 530, 4-(4-(2-(2,6-dimethylpyridin-4-yl)-3-ethyl-1H-indol-5-yl)piperidine-1-carbonyl)-1-methylpyrrolidin-2-one], the IC50 was 0.0522 µM on human TLR7 (setting [1]), 0.398 µM at human TLR8 (setting [2]) and 5.27 µM at human TLR9 (setting [3]).

In the case of `Cc1cc(-c2[nH]c3ccc(C4CCN(CC(=O)NC5CCC5)CC4)cc3c2C(C)C)cc(C)n1` [Example 213, N-cyclobutyl-2-(4-(2-(2,6-dimethylpyridin-4-yl)-3-isopropyl-1H-indol-5-yl)piperidin-1-yl) acetamide], the IC50 on human TLR7 (setting [1]) came to 0.0071 µM; on human TLR8 (setting [2]), 0.0138 µM; at human TLR9 (setting [3]), 0.331 µM.

As for `Cc1cc(-c2[nH]c3ccc(C4CCNCC4)cc3c2C(C)(C)C)ccn1` [Example 86, 3-(tert-butyl)-2-(2-methylpyridin-4-yl)-5-(piperidin-4-yl)-1H-indole], the IC50 against human TLR7 (setting [1]) was 23.6 µM; at human TLR8 (setting [2]) it was above 50 µM; at human TLR9 (setting [3]) it was 2.55 µM.

In the case of `CCc1c(-c2ccnc(C)c2)[nH]c2ccc(C3CCN(CCCN(C)C)CC3)cc12` [Example 673, 3-(4-(3-ethyl-2-(2-methylpyridin-4-yl)-1H-indol-5-yl)piperidin-1-yl)-N,N-dimethylpropan-1-amine], the IC50 against human TLR7 (setting [1]) turned out to be 0.0705 µM; at human TLR8 (setting [2]), 0.0231 µM; on human TLR9 (setting [3]) it was 0.287 µM.

For the compound `CCc1c(-c2ccnc(C#N)c2)[nH]c2ccc(C3CCNCC3)cc12` [Example 64, 4-(3-ethyl-5-(piperidin-4-yl)-1H-indol-2-yl)picolinonitrile], the IC50 turned out to be 0.0956 µM against human TLR7 (setting [1]), 0.0618 µM at human TLR8 (setting [2]) and 0.895 µM at human TLR9 (setting [3]).

As to `Cc1nccc(-c2[nH]c3ccc(C4CCN(CC(=O)N(C)C)CC4)cc3c2C(C)C)c1F` [Example 648, 2-(4-(2-(3-fluoro-2-methylpyridin-4-yl)-3-isopropyl-1H-indol-5-yl)piperidin-1-yl)-N,N-dimethylacetamide], the IC50 stood at 0.003 µM on human TLR7 (setting [1]), 0.0037 µM at human TLR8 (setting [2]) and 2.23 µM on human TLR9 (setting [3]).

Consider `CCc1c(-c2ccnc(C)c2)[nH]c2ccc(C3CCN(C(=O)NC4CCN(C(=O)C(F)(F)F)CC4)CC3)cc12` [Example 846, 4-(3-ethyl-2-(2-methylpyridin-4-yl)-1H-indol-5-yl)-N-(1-(2,2,2-trifluoroacetyl)piperidin-4-yl)piperidine-1-carboxamide], for which the IC50 on human TLR7 (HEK-Blue cells, gardiquimod 7.5 μM) is 1.59 µM; at human TLR8 (read-out: TLR8 IC50, HEK-Blue cells, R848 15.9 μM) it was 1.54 µM; at human TLR9 (read-out: TLR9 IC50, HEK-Blue cells, ODN2006 5 nM), above 50 µM.

For the compound `CCc1c(-c2ccnc(C)c2)[nH]c2c(F)cc(C3CCNCC3)cc12` [Example 81, 3-ethyl-7-fluoro-2-(2-methylpyridin-4-yl)-5-(piperidin-4-yl)-1H-indole], the IC50 at human TLR7 (setting [1]) turned out to be 0.614 µM; on human TLR8 (setting [2]) it was 0.907 µM; on human TLR9 (setting [3]), 0.696 µM.
